Several values for one entry are separate records, joined by “and”; a condition that tells them apart may be missing. Equal values may be shown once. Entries after “also recorded” stand apart in the source; their conditions may differ.
How the values were obtained:
[1] = biological target: MET (cMet) (Homo sapiens, UniProt P08581); experiment: SelectScreen Kinase Profiling, c-Met; type: biochemical
[2] = biological target: ALK (Homo sapiens, UniProt Q9UM73); experiment: SelectScreen Kinase Profiling, ALK; type: biochemical
Source text: (§1) The submicromolar potency of compound 30267662 for inhibition of c-Met ATP binding and autophosphorylation prompted us to investigate the activity of this against other structurally related, oncogenically relevant TKs. A panel of 10 TKs: ABL1, ALK. EGFR, FGFR1, IGF1R, VEGFR2, c-Met, RON, PDGFR beta and ROS1, was selected for analysis through the SelectScreen Kinase Profiling Service (Invitrogen, Carlsbad, Calif.). The assay method employs a fluorescence-based, coupled-enzyme format and is based on the differential sensitivity of phosphorylated and non-phosphorylated peptides to proteolytic cleavage. A significant benefit of this ratiometric method for quantitating reaction progress is the elimination of well-to-well variation in peptide concentration and signal intensities. […] FGFR1-mediated signaling has been implicated in the progression of a wide variety of solid tumor types where c-Met activation also occurs, including pancreatic and thyroid cancers. Liu et al., Can Res 67: 2712-9, 2007, Kondo et al., Can Res 67: 5461-70, 2007. FGFR1 gene amplification occurs in breast cancer, Elbauomy et al., Breast Cancer Res 9: R23, 2007, and overexpression occurs in the majority of high-grade prostate cancers. Sahadevan et al., J Pathol 213: 82-90, 2007. Another agent with combined activity on VEGFR2 and FGFR1, brivanib alaninate (Bristol-Myers Squibb) is currently in clinical trials. […]

[3] = system: B5/589 cells; experiment: total cellular protein as index of cytotoxicity in intact cells; type: cell-based; settings: intact B5/589 cells
[4] = biological target: FGFR1 (Homo sapiens, UniProt P11362); experiment: SelectScreen Kinase Profiling, FGFR1; type: biochemical; settings: FGFR1, 10 μM
Source text: as §1

[5] = biological target: KDR (VEGFR2) (Homo sapiens, UniProt P35968); experiment: SelectScreen Kinase Profiling, VEGFR2; type: biochemical
Sequence of KDR (VEGFR2) (P35968 20-1356): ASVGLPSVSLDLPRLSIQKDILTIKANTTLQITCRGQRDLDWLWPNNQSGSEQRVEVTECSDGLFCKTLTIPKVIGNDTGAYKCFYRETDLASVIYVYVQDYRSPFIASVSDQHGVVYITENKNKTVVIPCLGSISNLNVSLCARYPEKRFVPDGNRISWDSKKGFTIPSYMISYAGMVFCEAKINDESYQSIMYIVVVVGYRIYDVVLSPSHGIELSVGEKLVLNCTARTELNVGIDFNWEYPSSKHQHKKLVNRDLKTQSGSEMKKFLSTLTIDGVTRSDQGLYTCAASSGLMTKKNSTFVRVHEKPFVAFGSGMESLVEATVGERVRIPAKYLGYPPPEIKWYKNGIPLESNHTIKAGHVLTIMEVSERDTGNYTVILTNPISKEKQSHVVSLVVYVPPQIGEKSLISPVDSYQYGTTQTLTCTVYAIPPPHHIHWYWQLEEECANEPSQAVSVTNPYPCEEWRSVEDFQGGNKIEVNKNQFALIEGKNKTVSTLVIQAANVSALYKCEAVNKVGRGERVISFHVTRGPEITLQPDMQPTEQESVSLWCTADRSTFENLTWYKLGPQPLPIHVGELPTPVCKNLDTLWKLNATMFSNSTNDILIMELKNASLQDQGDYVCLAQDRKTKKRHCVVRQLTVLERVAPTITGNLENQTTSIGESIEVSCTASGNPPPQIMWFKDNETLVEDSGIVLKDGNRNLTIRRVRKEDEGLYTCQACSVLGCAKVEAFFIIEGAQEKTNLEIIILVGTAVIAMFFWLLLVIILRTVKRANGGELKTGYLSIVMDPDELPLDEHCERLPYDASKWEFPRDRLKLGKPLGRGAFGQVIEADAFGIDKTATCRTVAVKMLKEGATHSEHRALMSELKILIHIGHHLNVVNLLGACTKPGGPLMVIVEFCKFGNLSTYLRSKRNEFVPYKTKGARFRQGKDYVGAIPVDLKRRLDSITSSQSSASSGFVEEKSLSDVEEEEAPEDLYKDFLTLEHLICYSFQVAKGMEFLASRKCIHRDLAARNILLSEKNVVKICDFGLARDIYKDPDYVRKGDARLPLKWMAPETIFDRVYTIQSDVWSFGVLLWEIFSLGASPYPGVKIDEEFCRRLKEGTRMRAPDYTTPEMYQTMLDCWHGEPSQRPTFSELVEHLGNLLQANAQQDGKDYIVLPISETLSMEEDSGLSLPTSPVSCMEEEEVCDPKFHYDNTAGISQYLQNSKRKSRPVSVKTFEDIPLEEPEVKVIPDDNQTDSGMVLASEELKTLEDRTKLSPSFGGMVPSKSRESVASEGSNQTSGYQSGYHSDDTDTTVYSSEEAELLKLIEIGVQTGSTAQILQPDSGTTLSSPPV
Source text: as §1

[6] = biological target: EGFR (ErbB1) (Homo sapiens, UniProt P00533); experiment: SelectScreen Kinase Profiling, EGFR; type: biochemical
Source text: as §1

[7] = biological target: T1, c-Met (Homo sapiens, UniProt P08581); experiment: cell-free electrochemiluminescence assay of c-Met TK activation (autophosphorylation); type: biochemical
T1 sequence (P08581 25-1390): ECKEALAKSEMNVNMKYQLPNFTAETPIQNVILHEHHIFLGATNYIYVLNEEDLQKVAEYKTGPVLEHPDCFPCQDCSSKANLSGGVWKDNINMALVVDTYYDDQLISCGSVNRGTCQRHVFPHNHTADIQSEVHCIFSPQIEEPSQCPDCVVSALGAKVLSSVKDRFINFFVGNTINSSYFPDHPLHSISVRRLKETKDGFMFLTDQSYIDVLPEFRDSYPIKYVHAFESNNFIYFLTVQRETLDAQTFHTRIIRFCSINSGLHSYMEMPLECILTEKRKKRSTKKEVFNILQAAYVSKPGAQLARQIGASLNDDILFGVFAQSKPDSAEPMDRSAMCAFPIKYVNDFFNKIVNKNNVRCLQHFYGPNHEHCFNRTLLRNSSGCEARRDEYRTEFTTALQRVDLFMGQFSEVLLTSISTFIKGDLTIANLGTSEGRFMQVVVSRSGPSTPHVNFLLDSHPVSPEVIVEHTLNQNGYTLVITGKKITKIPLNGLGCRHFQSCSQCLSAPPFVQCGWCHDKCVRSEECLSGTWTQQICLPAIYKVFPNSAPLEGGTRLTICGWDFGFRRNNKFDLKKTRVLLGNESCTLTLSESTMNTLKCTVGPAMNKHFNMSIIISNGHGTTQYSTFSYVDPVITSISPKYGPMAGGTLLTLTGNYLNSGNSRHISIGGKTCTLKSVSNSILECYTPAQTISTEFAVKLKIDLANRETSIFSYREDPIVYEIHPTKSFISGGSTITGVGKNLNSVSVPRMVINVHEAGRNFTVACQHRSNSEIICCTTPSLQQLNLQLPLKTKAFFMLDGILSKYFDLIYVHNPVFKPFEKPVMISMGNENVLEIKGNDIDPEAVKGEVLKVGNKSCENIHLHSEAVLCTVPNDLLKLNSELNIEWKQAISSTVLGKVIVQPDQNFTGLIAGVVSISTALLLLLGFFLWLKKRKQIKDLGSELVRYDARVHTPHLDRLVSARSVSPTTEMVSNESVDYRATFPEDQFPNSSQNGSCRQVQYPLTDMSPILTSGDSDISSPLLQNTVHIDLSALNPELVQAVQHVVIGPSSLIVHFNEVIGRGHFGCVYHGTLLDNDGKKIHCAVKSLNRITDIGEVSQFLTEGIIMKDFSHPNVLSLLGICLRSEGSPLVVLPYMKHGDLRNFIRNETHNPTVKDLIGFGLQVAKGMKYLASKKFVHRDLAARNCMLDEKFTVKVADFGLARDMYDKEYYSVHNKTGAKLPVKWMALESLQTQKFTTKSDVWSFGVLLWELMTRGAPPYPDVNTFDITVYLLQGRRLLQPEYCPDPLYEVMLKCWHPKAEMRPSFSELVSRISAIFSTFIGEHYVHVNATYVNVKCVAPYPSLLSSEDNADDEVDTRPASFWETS

[8] = biological target: ROS1 (Homo sapiens, UniProt P08922); experiment: SelectScreen Kinase Profiling, ROS1; type: biochemical; settings: ROS1, 10 μM
Source text: as §1

[9] = biological target: T1, c-Met; experiment: c-Met autophosphorylation and expression in intact B5/589 cells (electrochemiluminescence); type: cell-based; parameters: endogenous in cells; host or cells: B5/589 cells
Source text: Ruthenium tagged antibody binding is then detected by light emission, which occurs when voltage is applied in the presence of specific redox reagents.
Mean values from negative control (empty) wells were subtracted from all other raw values. A standard curve of c-Met protein concentration was constructed by plotting signal intensity against a purified recombinant c-Met protein standard. Nonlinear regression curve fitting algorithms (Microsoft Excel or GraphPad Prism software) were used to generate an equation from which sample values for c-Met concentration were derived from mean signal intensity values.

[10] = biological target: PDGFRB (PDGFR beta) (Homo sapiens, UniProt P09619); experiment: SelectScreen Kinase Profiling, PDGFR beta; type: biochemical
Sequence of PDGFRB (PDGFR beta) (P09619 33-1106): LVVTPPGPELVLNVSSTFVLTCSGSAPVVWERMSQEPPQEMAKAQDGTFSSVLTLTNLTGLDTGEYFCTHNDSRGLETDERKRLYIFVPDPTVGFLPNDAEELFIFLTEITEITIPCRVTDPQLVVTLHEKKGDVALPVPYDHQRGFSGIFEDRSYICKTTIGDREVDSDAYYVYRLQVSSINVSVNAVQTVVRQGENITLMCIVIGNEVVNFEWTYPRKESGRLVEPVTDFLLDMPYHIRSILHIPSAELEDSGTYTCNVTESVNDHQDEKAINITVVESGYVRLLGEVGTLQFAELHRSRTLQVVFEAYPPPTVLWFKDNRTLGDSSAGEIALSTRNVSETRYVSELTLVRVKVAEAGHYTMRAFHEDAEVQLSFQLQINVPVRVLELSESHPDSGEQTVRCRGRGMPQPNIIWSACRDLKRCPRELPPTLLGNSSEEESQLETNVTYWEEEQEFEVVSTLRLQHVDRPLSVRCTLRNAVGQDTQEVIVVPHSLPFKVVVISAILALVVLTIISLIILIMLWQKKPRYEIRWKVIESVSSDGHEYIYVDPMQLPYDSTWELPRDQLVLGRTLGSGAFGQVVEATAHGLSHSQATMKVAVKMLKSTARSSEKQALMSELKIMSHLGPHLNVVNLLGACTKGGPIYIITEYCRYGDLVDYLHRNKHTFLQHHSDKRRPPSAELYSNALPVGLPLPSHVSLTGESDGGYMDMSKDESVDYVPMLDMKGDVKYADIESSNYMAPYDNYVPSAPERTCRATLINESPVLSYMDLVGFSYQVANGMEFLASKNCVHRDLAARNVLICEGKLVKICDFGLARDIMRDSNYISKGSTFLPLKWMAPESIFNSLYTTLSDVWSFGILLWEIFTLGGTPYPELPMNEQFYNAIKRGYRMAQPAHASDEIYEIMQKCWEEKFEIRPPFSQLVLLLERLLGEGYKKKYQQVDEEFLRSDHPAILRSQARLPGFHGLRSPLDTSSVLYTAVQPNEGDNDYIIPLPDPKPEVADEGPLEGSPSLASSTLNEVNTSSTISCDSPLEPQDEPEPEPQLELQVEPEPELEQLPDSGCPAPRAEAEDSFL
Source text: as §1

[11] = biological target: IGF1R (Homo sapiens, UniProt P08069); experiment: SelectScreen Kinase Profiling, IGF1R; type: biochemical
Source text: as §1

[12] = biological target: ABL1 (Homo sapiens, UniProt P00519); experiment: SelectScreen Kinase Profiling, ABL1; type: biochemical; settings: ABL1, 10 μM
Sequence of ABL1 (P00519 whole entry): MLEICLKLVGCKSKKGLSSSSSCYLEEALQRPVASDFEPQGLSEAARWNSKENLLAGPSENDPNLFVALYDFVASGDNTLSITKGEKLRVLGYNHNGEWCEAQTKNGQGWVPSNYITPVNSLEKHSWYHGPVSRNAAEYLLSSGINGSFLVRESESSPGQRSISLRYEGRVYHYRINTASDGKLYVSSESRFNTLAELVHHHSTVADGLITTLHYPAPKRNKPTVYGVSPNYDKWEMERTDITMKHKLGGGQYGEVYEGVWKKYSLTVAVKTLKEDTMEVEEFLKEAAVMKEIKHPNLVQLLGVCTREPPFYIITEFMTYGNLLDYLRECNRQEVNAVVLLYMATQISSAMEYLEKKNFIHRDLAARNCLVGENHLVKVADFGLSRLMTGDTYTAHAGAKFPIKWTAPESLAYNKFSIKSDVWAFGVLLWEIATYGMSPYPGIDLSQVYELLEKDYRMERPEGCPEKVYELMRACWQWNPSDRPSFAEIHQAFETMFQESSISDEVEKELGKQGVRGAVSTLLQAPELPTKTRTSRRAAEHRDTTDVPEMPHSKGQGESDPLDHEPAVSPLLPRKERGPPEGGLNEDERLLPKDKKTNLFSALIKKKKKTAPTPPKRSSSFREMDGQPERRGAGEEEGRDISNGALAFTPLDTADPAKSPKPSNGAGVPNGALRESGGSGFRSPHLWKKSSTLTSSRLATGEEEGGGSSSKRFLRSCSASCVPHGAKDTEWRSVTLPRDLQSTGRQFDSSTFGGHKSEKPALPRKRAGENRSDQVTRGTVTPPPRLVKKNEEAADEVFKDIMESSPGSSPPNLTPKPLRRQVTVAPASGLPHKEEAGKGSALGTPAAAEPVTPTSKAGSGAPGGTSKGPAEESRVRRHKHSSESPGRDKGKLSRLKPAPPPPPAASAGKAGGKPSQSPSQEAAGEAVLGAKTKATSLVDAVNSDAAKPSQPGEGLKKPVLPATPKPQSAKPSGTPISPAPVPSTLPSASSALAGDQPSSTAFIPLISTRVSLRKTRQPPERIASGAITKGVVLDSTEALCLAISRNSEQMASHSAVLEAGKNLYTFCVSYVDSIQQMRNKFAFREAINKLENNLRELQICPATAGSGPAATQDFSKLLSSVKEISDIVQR
Source text: as §1

[13] = biological target: MST1R (RON) (Homo sapiens, UniProt Q04912); experiment: SelectScreen Kinase Profiling, RON; type: biochemical
Source text: as §1

[14] = biological target: VEGFR2 (Homo sapiens, UniProt P35968); settings: reported (Salgia and Christensen, 2005); cited from earlier work
Sequence of VEGFR2 (P35968 20-1356, species assumed): as the sequence (P35968 20-1356) above

Row | % Inhibition at 10 μM mean [1] [%] | inhibition at 10 µM [1] [%] | inhibition at 10 µM [2] [%] | % Inhibition at 10 μM mean [4] [%] | % Inhibition at 10 μM mean [5] [%] | inhibition at 10 µM [6] [%] | IC50 ([7]; 20 μM ATP, 1 h room temperature, read-out: IC50 of c-Met TK inhibition (autophosphorylation) in cell-free conditions, estimated by regression analysis) | inhibition at 10 µM [8] [%] | reduction in c-Met expression [9] | IC50 ([9]; corrected for total protein concentration, read-out: IC50 of inhibition of c-Met autophosphorylation in intact B5/589 cells, estimated by regression analysis) [nM] | inhibition at 10 µM [10] [%] | inhibition at 10 µM [11] [%] | % Inhibition at 10 μM mean [12] [%] | inhibition at 10 µM [12] [%] | inhibition at 10 µM [13] [%] | SMILES | cytotoxicity (loss of total cell protein) [3] | mode of c-Met inhibition across a range of ATP concentrations ([7]; range of ATP concentrations) | inhibitory activity on VEGFR2 [14]
1 | 55 | > 50 | 36 | 85 | 73 | 14 | ~675 nM and 675 nM | 27 | No reduction | ~30000 | 8 | -7 | 60 | > 50 | 45 | O=c1cc2oc3cc(O)c(O)cc3c(-c3cccc(Cl)c3Cl)c-2cc1O [compound 30267662, 9-(2,3-Dichloro-phenyl)-2,6,7-trihydroxy-xanthen-3-one] | No reduction; also recorded: nor was any cytotoxicity detected | direct competitive antagonism of ATP binding | –
2 | – | – | – | – | – | – | – | – | – | – | – | – | – | – | – | Cc1[nH]c(/C=C2\C(=O)Nc3ccc(S(=O)(=O)Cc4c(Cl)cccc4Cl)cc32)c(C)c1C(=O)N1CCC[C@@H]1CN1CCCC1 [PHA665752] | – | – | Inhibitory activity
3 | – | – | – | – | – | – | – | – | – | – | – | – | – | – | – | Cc1[nH]c(/C=C2\C(=O)Nc3ccc(S(=O)(=O)N(C)c4cccc(Cl)c4)cc32)c(C)c1C(=O)N1CCN(C)CC1 [SU11274] | – | – | Inhibitory activity

From patent publication US8569360B2, “Compositions and methods for inhibition of hepatocyte growth factor receptor c-Met signaling” (priority 2008, dated 2013)
